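The compound was tested at five concentrations on cells cultured in 96-well plates, with a 48-hour exposure period. Here, GI50 denotes the concentration required for 50% inhibition of growth.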 The source made the active and inactive calls. Cut-off read from the data, not from the text of the source: active = GI50 up to about 1.1 µM and inactive = higher.
What was measured:
Assay in all cases: NCI-60 cell line screen, 48 h
HCC 2998 = test system: HCC 2998
Malme-3M = test system: Malme-3M
OVCAR-8 = test system: OVCAR-8
SK-MEL-5 = test system: SK-MEL-5
SF-268 = test system: SF-268
UACC-257 = test system: UACC-257
HOP-62 = test system: HOP-62
DU-145 = test system: DU-145
SW-620 = test system: SW-620
HL-60 = test system: HL-60
BT-549 = test system: BT-549
SF-539 = test system: SF-539
TK-10 = test system: TK-10
NCI-H460 = test system: NCI-H460
IGROV-1 = test system: IGROV-1
SK-OV-3 = test system: SK-OV-3
OVCAR-3 = test system: OVCAR-3
RXF 393 = test system: RXF 393
UO-31 = test system: UO-31
T47D = test system: T47D
MDA-N = test system: MDA-N
MCF7 = test system: MCF7
HCT-116 = test system: HCT-116
RPMI-8226 = test system: RPMI-8226
SN12C = test system: SN12C
CAKI-1 = test system: CAKI-1
HCT-15 = test system: HCT-15
A549 = test system: A549
COLO 205 = test system: COLO 205
NCI-H226 = test system: NCI-H226
SR = test system: SR
MOLT-4 = test system: MOLT-4
ACHN = test system: ACHN
SK-MEL-2 = test system: SK-MEL-2
SF-295 = test system: SF-295
HT-29 = test system: HT-29
SK-MEL-28 = test system: SK-MEL-28
MDA-MB-435 = test system: MDA-MB-435
Hs-578T = test system: Hs-578T
OVCAR-5 = test system: OVCAR-5
CCRF-CEM = test system: CCRF-CEM
OVCAR-4 = test system: OVCAR-4
PC-3 = test system: PC-3
LOX IMVI = test system: LOX IMVI
K562 = test system: K562
NCI/ADR-RES = test system: NCI/ADR-RES
786-0 = test system: 786-0
EKVX = test system: EKVX
M14 = test system: M14
NCI-H23 = test system: NCI-H23
SNB-75 = test system: SNB-75
SNB-19 = test system: SNB-19
MDA-MB-231 = test system: MDA-MB-231
HOP-92 = test system: HOP-92
NCI-H522 = test system: NCI-H522
U-251 = test system: U-251
UACC-62 = test system: UACC-62
KM12 = test system: KM12

CC(=O)N1C(Nc2ccccn2)CCN1c1ccccc1 (stereo not drawn)
GI50 (HCC 2998): > 10 µM (inactive)
GI50 (Malme-3M): > 10 µM (inactive)
GI50 (OVCAR-8): > 10 µM (inactive)
GI50 (SK-MEL-5): > 10 µM (inactive)
GI50 (SF-268): > 10 µM (inactive)
GI50 (UACC-257): > 10 µM (inactive)
GI50 (HOP-62): > 10 µM (inactive)
GI50 (DU-145): > 10 µM (inactive)
GI50 (SW-620): > 10 µM (inactive)
GI50 (HL-60): > 10 µM (inactive)
GI50 (BT-549): > 10 µM (inactive)
GI50 (SF-539): > 10 µM (inactive)
GI50 (TK-10): > 10 µM (inactive)
GI50 (NCI-H460): > 10 µM (inactive)
GI50 (IGROV-1): > 10 µM (inactive)
GI50 (SK-OV-3): > 10 µM (inactive)
GI50 (OVCAR-3): > 10 µM (inactive)
GI50 (RXF 393): > 10 µM (inactive)
GI50 (UO-31): > 10 µM (inactive)
GI50 (T47D): > 10 µM (inactive)
GI50 (MDA-N): > 10 µM (inactive)
GI50 (MCF7): > 10 µM (inactive)
GI50 (HCT-116): > 10 µM (inactive)
GI50 (RPMI-8226): > 10 µM (inactive)
GI50 (SN12C): > 10 µM (inactive)
GI50 (CAKI-1): > 10 µM (inactive)
GI50 (HCT-15): > 10 µM
GI50 (A549): > 10 µM (inactive)
GI50 (COLO 205): > 10 µM (inactive)
GI50 (NCI-H226): > 10 µM (inactive)
GI50 (SR): > 10 µM (inactive)
GI50 (MOLT-4): > 10 µM (inactive)
GI50 (ACHN): 7.36 µM (inactive)
GI50 (SK-MEL-2): > 10 µM (inactive)
GI50 (SF-295): > 10 µM (inactive)
GI50 (HT-29): > 10 µM (inactive)
GI50 (SK-MEL-28): > 10 µM (inactive)
GI50 (MDA-MB-435): > 10 µM (inactive)
GI50 (Hs-578T): > 10 µM (inactive)
GI50 (OVCAR-5): > 10 µM (inactive)
GI50 (CCRF-CEM): > 10 µM (inactive)
GI50 (OVCAR-4): > 10 µM (inactive)
GI50 (PC-3): > 10 µM (inactive)
GI50 (LOX IMVI): > 10 µM (inactive)
GI50 (K562): > 10 µM (inactive)
GI50 (NCI/ADR-RES): > 10 µM (inactive)
GI50 (786-0): > 10 µM (inactive)
GI50 (EKVX): > 10 µM (inactive)
GI50 (M14): > 10 µM (inactive)
GI50 (NCI-H23): > 10 µM (inactive)
GI50 (SNB-75): > 10 µM (inactive)
GI50 (SNB-19): > 10 µM (inactive)
GI50 (MDA-MB-231): > 10 µM (inactive)
GI50 (HOP-92): > 10 µM (inactive)
GI50 (NCI-H522): > 10 µM (inactive)

COC(=O)/C=C(\C(=O)OC)C1C(=O)Oc2c(C)c(=O)c3ccccc3n21 (stereo not drawn)
GI50 (Malme-3M): > 100 µM (inactive)
GI50 (OVCAR-8): > 100 µM (inactive)
GI50 (SK-MEL-5): > 100 µM (inactive)
GI50 (SF-268): > 100 µM (inactive)
GI50 (UACC-257): > 100 µM (inactive)
GI50 (HOP-62): > 100 µM (inactive)
GI50 (DU-145): > 100 µM (inactive)
GI50 (SW-620): > 100 µM (inactive)
GI50 (HL-60): > 100 µM (inactive)
GI50 (BT-549): > 100 µM (inactive)
GI50 (SF-539): > 100 µM (inactive)
GI50 (TK-10): > 100 µM (inactive)
GI50 (NCI-H460): > 100 µM (inactive)
GI50 (IGROV-1): > 100 µM (inactive)
GI50 (SK-OV-3): > 100 µM (inactive)
GI50 (OVCAR-3): > 100 µM (inactive)
GI50 (RXF 393): > 100 µM (inactive)
GI50 (T47D): > 100 µM (inactive)
GI50 (MDA-N): > 100 µM (inactive)
GI50 (MCF7): > 100 µM (inactive)
GI50 (HCT-116): > 100 µM (inactive)
GI50 (RPMI-8226): > 100 µM (inactive)
GI50 (SN12C): > 100 µM (inactive)
GI50 (CAKI-1): > 100 µM (inactive)
GI50 (HCT-15): > 100 µM
GI50 (A549): > 100 µM (inactive)
GI50 (U-251): > 100 µM (inactive)
GI50 (COLO 205): > 100 µM (inactive)
GI50 (NCI-H226): > 100 µM (inactive)
GI50 (SR): > 100 µM (inactive)
GI50 (MOLT-4): > 100 µM (inactive)
GI50 (SK-MEL-2): > 100 µM (inactive)
GI50 (SF-295): > 100 µM (inactive)
GI50 (HT-29): > 100 µM (inactive)
GI50 (SK-MEL-28): > 100 µM (inactive)
GI50 (MDA-MB-435): > 100 µM (inactive)
GI50 (UACC-62): > 100 µM (inactive)
GI50 (Hs-578T): > 100 µM (inactive)
GI50 (CCRF-CEM): > 100 µM (inactive)
GI50 (OVCAR-4): > 100 µM (inactive)
GI50 (PC-3): > 100 µM (inactive)
GI50 (LOX IMVI): > 100 µM (inactive)
GI50 (K562): > 100 µM (inactive)
GI50 (NCI/ADR-RES): > 100 µM (inactive)
GI50 (786-0): > 100 µM (inactive)
GI50 (KM12): > 100 µM (inactive)
GI50 (EKVX): > 100 µM (inactive)
GI50 (M14): > 100 µM (inactive)
GI50 (NCI-H23): > 100 µM (inactive)
GI50 (SNB-75): > 100 µM (inactive)
GI50 (SNB-19): > 100 µM (inactive)
GI50 (MDA-MB-231): > 100 µM (inactive)
GI50 (NCI-H522): > 100 µM (inactive)
